Laboratory results published in patent US9566312B2, “Cyclic peptides and use as medicines” (priority 2012, dated 2017).
Read-outs that look alike come from different tables or passages of the source. Starred links: 1 amine or outer side, 2 acyl side, 3 side chain; linkers in the order of their positions; H or OH if unused. Non-standard residues stand in square brackets, D forms with d. Residues, ends and D or L forms follow the SMILES beside them. X44 = CC(C)N1CCN(C(=O)COC[C@@H](C)[C@@H](C(=O)[*:2])N(C)[*:1])CC1; X66 = C[C@H](COCC(=O)N1CCN(C)CC1)[C@@H](C(=O)[*:2])N(C)[*:1]; X69 = C[C@H](CCCN1CCC(C(N)=O)CC1)[C@@H](C(=O)[*:2])N(C)[*:1]; X1 = COC[C@@H]1CN(C[C@H](C)[C@@H](C(=O)[*:2])N(C)[*:1])CCO1; X60 = C[C@H](CCCN1CC2CCC(C1)N2C)[C@@H](C(=O)[*:2])N(C)[*:1]; X36 = C[C@H](COCCN(C)CC(F)(F)F)[C@@H](C(=O)[*:2])N(C)[*:1]; X40 = C[C@H](COCC(=O)N1CCNCC1)[C@@H](C(=O)[*:2])N(C)[*:1]; MeBmt = C/C=C/C[C@@H](C)[C@@H](O)[C@H](NC)C(=O)O; NMeVal(4-OMe,3S) = CN[C@H](C(=O)O)[C@H](C)COC; NMeL = CN[C@@H](CC(C)C)C(=O)O; NMeV = CN[C@H](C(=O)O)C(C)C; dNMeS = CN[C@H](CO)C(=O)O; dNMeA = CN[C@H](C)C(=O)O; Abu = CC[C@H](N)C(=O)O

How the values were obtained:
CypF = CypF (Homo sapiens (Human), UniProt P30405); test: Inhibitor binding to cyclophilin proteins by SPR, CypF; conditions: 1:1 binding model
Protocol: (§1) Method 1: Measuring Inhibitor Binding to Cyclophilin Proteins
(§2) Binding of inhibitors to expressed cyclophilins was determined using surface plasmon resonance (SPR) experiments. Briefly, avi-tagged cyclophilin proteins with mono-biotinylation were immobilized onto a Biotin CAPture chip (GE Healthcare, cat. #28920234). SPR experiments were carried out on an upgraded Biacore T200 system using a running buffer containing the inhibitor, 10 mM HEPES, pH 7.4, 150 mM NaCl, 0.05% P20, and 3% DMSO. Single-cycle kinetics measurements were used to study the interactions between cyclophilin inhibitors and different cyclophlins. Accordingly, compound at various concentrations was injected to the flow cells with a contact time of 1 min each at a flow rate of 50 μL/min. The final dissociation phase lasts for 10 min following the sample injection. Data was analyzed using Biacore T200 Evaluation Software Version 1.0 and a 1:1 binding model was applied to fit the data to obtain kon, koff, and KD.

cyclophilin B (CypB) = cyclophilin B (CypB) (Homo sapiens (Human), UniProt P23284); test: Inhibitor binding to cyclophilin proteins by SPR, CypB; design: unit not given here; conditions: 1:1 binding model
Protocol: as §1, §2

cyclophilin A (CypA) = cyclophilin A (CypA) (Homo sapiens (Human), UniProt P62937); test: Inhibitor binding to cyclophilin proteins by SPR, CypA; design: unit not given here; conditions: 1:1 binding model
[1] = biological target: organic anion transporting polypeptide 1B1 (OATP1B1) (Homo sapiens (Human), UniProt Q9Y6L6); test: OATP assay in CHO-OATP1B1 cells;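 also: inhibition of probe substrate uptake into the cells, ten minutes exposure, accumulated substrate read by fluorescence once cells were lysed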
[2] = tested on: peripheral blood mononuclear cells (PBMC); test: Anti-proliferative or immunosuppressive activity, BrdU incorporation in PHA-stimulated PBMC; type: cell-based; conditions: PHA 3 μg/ml, 60 hour compound treatment; read-out: EMV PBMC IC50
Protocol: Method 3: Measuring Anti-Proliferative or Immunosuppressive Activity
The potential anti-proliferative activity of compounds on T-cells was analyzed based on the amount of bromodesoxy uridine (BrdU) incorporated into DNA of fresh peripheral blood mononuclear cells (PBMC) using the BrdU ELISA kit (Roche). The assay is performed in 96-well plate format with 30,000 PBMCs seeded per well in X-VIVO 15 medium (Lonza). T-cell proliferation was stimulated by addition of 3 μg/ml phytohemagglutinin (PHA) in PBMCs obtained from two donors.

[3] = tested on: genotype 1b subgenomic HCV replicon in Huh7.5 cells; type: cell-based, hepatitis C virus; conditions: read-out: RPLN-1b IC50
Protocol: Method 2: Measuring Inhibitory Effects in a HCV Replicon System
Susceptibility to compounds was analyzed in Huh7.5 cells containing genotype 1a or 1b subgenomic HCV replicons co-expressing a luciferase reporter gene. The original replicons, pFK389lucubineo_3_3′_ET and pH/SG-Neo(L+I), were licensed from ReBlicon GmbH (Germany) and Apath LLC (Saint Louis, Mo.), respectively. The firefly reporter gen was replaced by renilla luciferase reporter gene using standard molecular biology techniques as follows.
Generation of genotype 1b subgenomic replicon: The renilla […]-neomycin phosphotransferase cassette was amplified from pF9 cytomegalovirus (CMV) hRluc-Neo Flexi(R) (Promega) by PCR using Accuprime super mix II (Invitrogen) and a primer set of Ascl hRlucNeo Fwd and NotI hRluc Rev. These two primers have the following sequences and introduce restriction sites for subsequent cloning: Ascl hRlucNeo Fwd, 5 […] 3(Ascl site underlined) (SEQ. ID No. 1), and NotI hRluc Rev, 5[…] 3(NotI site underlined) (SEQ ID No. 2). The amplification product was subcloned into pCR2.1-TOPO (Invitrogen). The resulting plasmid was digested with Ascl and NotI, and the excised fragment (hRluc-Neo) was ligated with the Roche Quick Ligation Kit (Roche) into pFK1389lucubineo_3_3′_ET digested with the same enzymes.
The assay medium for both, luciferase reporter HCV replicon and cytotoxicity assays contains phenol red-free DMEM and lacks G418. […] Luciferase activity of compound treated cells is measured relative to DMSO treated cells after 72 h incubation using Renilla-Glo™ Luciferase Assay (Promega). Cytotoxicity (CC50) is analyzed using Cell Titer-Glo™ (Promega).

[4] = genotype 1b replicon, 72 h incubation

organic anion transporting polypeptide 1B1 (OATP1B1), sequence (Q9Y6L6 whole entry): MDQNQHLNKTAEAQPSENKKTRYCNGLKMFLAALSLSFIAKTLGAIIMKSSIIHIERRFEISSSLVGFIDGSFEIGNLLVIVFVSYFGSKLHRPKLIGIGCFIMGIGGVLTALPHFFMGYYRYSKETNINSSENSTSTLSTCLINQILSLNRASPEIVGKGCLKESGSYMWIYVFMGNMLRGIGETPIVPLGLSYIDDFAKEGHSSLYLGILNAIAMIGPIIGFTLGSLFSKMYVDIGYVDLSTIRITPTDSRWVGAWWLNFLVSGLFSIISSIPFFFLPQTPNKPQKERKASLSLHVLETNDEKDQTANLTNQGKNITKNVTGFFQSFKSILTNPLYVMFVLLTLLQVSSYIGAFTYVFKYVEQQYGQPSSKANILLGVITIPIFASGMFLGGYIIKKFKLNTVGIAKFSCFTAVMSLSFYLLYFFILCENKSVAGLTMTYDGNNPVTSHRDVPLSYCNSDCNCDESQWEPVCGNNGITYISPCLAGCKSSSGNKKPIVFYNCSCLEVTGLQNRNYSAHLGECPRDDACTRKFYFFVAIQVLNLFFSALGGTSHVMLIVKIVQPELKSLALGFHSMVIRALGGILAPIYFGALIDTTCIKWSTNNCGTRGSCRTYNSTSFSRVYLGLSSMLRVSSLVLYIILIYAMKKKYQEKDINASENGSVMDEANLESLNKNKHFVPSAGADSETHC
cyclophilin B (CypB), sequence (P23284 34-216): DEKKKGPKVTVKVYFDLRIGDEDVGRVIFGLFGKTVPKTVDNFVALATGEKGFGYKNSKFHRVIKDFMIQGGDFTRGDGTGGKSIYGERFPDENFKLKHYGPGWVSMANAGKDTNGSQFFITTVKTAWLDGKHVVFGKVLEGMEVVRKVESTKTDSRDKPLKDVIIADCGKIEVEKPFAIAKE
CypF, sequence (P30405 30-207): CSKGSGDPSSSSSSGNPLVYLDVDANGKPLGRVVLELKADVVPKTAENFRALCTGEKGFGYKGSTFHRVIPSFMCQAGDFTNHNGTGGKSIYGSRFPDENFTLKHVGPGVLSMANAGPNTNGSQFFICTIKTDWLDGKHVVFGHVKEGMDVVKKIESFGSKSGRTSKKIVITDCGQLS
cyclophilin A (CypA), sequence (P62937 whole entry): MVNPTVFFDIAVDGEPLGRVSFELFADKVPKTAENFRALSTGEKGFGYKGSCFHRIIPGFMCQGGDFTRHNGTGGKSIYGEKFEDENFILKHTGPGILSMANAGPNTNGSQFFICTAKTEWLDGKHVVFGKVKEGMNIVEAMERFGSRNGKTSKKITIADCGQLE

## C/C=C/C[C@@H](C)[C@@H](O)[C@H]1C(=O)N[C@@H](CC)C(=O)N(C)[C@H](C)C(=O)N(C)[C@@H]([C@H](C)COCC(=O)N2CCNCC2)C(=O)N[C@@H](C(C)C)C(=O)N(C)[C@@H](CC(C)C)C(=O)N[C@@H](C)C(=O)N[C@H](C)C(=O)N(C)[C@@H](CC(C)C)C(=O)N(C)[C@@H](CC(C)C)C(=O)N(C)[C@@H](C(C)C)C(=O)N1C [Compound 2.6.1, 3-[D-Ala]-4-[(2S,3S)-3-methyl-2-(methylamino)-4-(2-oxo-2-(piperazin-1-yl)ethoxy)butanoyl]-cyclosporin] (cyclo(A[dA][NMeL][NMeL][NMeV][MeBmt][Abu][dNMeA][X40]V[NMeL]))
CypF
  CypF Kd: 0.4 nM
Cyclophilin B (CypB)
  CypB Kd: 0.7
Cyclophilin A (CypA)
  CypA Kd: 1.0
[1]
  IC50: 6.9 µM

## C/C=C/C[C@@H](C)[C@@H](O)[C@H]1C(=O)N[C@@H](CC)C(=O)N(C)[C@H](C)C(=O)N(C)[C@@H]([C@H](C)COCC(=O)N2CCN(C)CC2)C(=O)N[C@@H](C(C)C)C(=O)N(C)[C@@H](CC(C)C)C(=O)N[C@@H](C)C(=O)N[C@H](C)C(=O)N(C)[C@@H](CC(C)C)C(=O)N(C)[C@@H](CC(C)C)C(=O)N(C)[C@@H](C(C)C)C(=O)N1C [Compound 2.6.3, 3-[D-Ala]-4-[(2S,3S)-3-methyl-2-(methylamino)-4-(2-(4-methylpiperazin-1-yl)-2-oxoethoxy)butanoyl]-cyclosporin] (cyclo(A[dA][NMeL][NMeL][NMeV][MeBmt][Abu][dNMeA][X66]V[NMeL]))
CypF
  CypF Kd: 0.5 nM
Cyclophilin B (CypB)
  CypB Kd: 0.8
Cyclophilin A (CypA)
  CypA Kd: 1.5
[1]
  IC50: 9.4 µM

## C/C=C/C[C@@H](C)[C@@H](O)[C@H]1C(=O)N[C@@H](CC)C(=O)N(C)[C@H](C)C(=O)N(C)[C@@H]([C@H](C)COCC(=O)N2CCN(C(C)C)CC2)C(=O)N[C@@H](C(C)C)C(=O)N(C)[C@@H](CC(C)C)C(=O)N[C@@H](C)C(=O)N[C@H](C)C(=O)N(C)[C@@H](CC(C)C)C(=O)N(C)[C@@H](CC(C)C)C(=O)N(C)[C@@H](C(C)C)C(=O)N1C [Compound 2.6.4, 3-[D-Ala]-4-[(2S,3S)-4-(2-(4-isopropylpiperazin-1-yl)-2-oxoethoxy)-3-methyl-2-(methylamino)butanoyl]-cyclosporin] (cyclo(A[dA][NMeL][NMeL][NMeV][MeBmt][Abu][dNMeA][X44]V[NMeL]))
CypF
  CypF Kd: 0.6 nM
Cyclophilin B (CypB)
  CypB Kd: 1.1
Cyclophilin A (CypA)
  CypA Kd: 1.4
[1]
  IC50: 8 µM

## C/C=C/C[C@@H](C)[C@@H](O)[C@H]1C(=O)N[C@@H](CC)C(=O)N(C)[C@H](C)C(=O)N(C)[C@@H]([C@H](C)COCCN(C)CC(F)(F)F)C(=O)N[C@@H](C(C)C)C(=O)N(C)[C@@H](CC(C)C)C(=O)N[C@@H](C)C(=O)N[C@H](C)C(=O)N(C)[C@@H](CC(C)C)C(=O)N(C)[C@@H](CC(C)C)C(=O)N(C)[C@@H](C(C)C)C(=O)N1C [Compound 2.8.3, 3-[D-Ala]-4-[(2S,3S)-3-methyl-4-(2-(methyl(2,2,2-trifluoroethyl)amino)ethoxy)-2-(methylamino)butanoyl]-cyclosporin] (cyclo(A[dA][NMeL][NMeL][NMeV][MeBmt][Abu][dNMeA][X36]V[NMeL]))
CypF
  CypF Kd: 4.1 nM
Cyclophilin B (CypB)
  CypB Kd: 3.3
Cyclophilin A (CypA)
  CypA Kd: 4.4
[1]
  IC50: 1.9 µM

## C/C=C/C[C@@H](C)[C@@H](O)[C@H]1C(=O)N[C@@H](CC)C(=O)N(C)[C@H](C)C(=O)N(C)[C@@H]([C@H](C)COCCN2CCN3C(=O)OC[C@@H]3C2)C(=O)N[C@@H](C(C)C)C(=O)N(C)[C@@H](CC(C)C)C(=O)N[C@@H](C)C(=O)N[C@H](C)C(=O)N(C)[C@@H](CC(C)C)C(=O)N(C)[C@@H](CC(C)C)C(=O)N(C)[C@@H](C(C)C)C(=O)N1C [Compound 2.8.11, 3-[D-Ala]-4-[(2S,3S)-3-methyl-2-(methylamino)-4-(2-((S)-3-oxotetrahydro-1H-oxazolo[3,4-a]pyrazin-7(3H)-yl)ethoxy)butanoyl]-cyclosporin]
[2]
  IC50: 12.4 µM
CypF
  CypF Kd: 0.5 nM
Cyclophilin B (CypB)
  CypB Kd: 0.6
Cyclophilin A (CypA)
  CypA Kd: 1.3
[3]; [4]
  IC50: 58 nM

## C/C=C/C[C@@H](C)[C@@H](O)[C@H]1C(=O)N[C@@H](CC)C(=O)N(C)[C@H](C)C(=O)N(C)[C@@H]([C@@H](C)CN2CCO[C@H](COC)C2)C(=O)N[C@@H](C(C)C)C(=O)N(C)[C@@H](CC(C)C)C(=O)N[C@@H](C)C(=O)N[C@H](C)C(=O)N(C)[C@@H](CC(C)C)C(=O)N(C)[C@@H](CC(C)C)C(=O)N(C)[C@@H](C(C)C)C(=O)N1C [Compound 2.17.11, 3-[D-Ala]-4-[(2S,3S)-4-((S)-2-(methoxymethyl)morpholino)-3-methyl-2-(methylamino)butanoyl]-cyclosporin] (cyclo(A[dA][NMeL][NMeL][NMeV][MeBmt][Abu][dNMeA][X1]V[NMeL]))
[2]
  IC50: 36.4 µM
CypF
  CypF Kd: 0.6 nM
Cyclophilin B (CypB)
  CypB Kd: 0.7
Cyclophilin A (CypA)
  CypA Kd: 1.1
[3]; [4]
  IC50: 22 nM

## C/C=C/C[C@@H](C)[C@@H](O)[C@H]1C(=O)N[C@@H](CC)C(=O)N(C)[C@H](C)C(=O)N(C)[C@@H]([C@H](C)CCCN2CCC(C(N)=O)CC2)C(=O)N[C@@H](C(C)C)C(=O)N(C)[C@@H](CC(C)C)C(=O)N[C@@H](C)C(=O)N[C@H](C)C(=O)N(C)[C@@H](CC(C)C)C(=O)N(C)[C@@H](CC(C)C)C(=O)N(C)[C@@H](C(C)C)C(=O)N1C [Compound 2.19.2, 3-[D-Ala]-4-[(2S,3R)-6-(4-carbamoylpiperidin-1-yl)-3-methyl-2-(methylamino)hexanoyl]-cyclosporin] (cyclo(A[dA][NMeL][NMeL][NMeV][MeBmt][Abu][dNMeA][X69]V[NMeL]))
[2]
  IC50: 32.3 µM
CypF
  CypF Kd: 0.5 nM
Cyclophilin B (CypB)
  CypB Kd: 0.6
Cyclophilin A (CypA)
  CypA Kd: 0.9
[3]; [4]
  IC50: 2700 nM

## C/C=C/C[C@@H](C)[C@@H](O)[C@H]1C(=O)N[C@@H](CC)C(=O)N(C)[C@H](C)C(=O)N(C)[C@@H]([C@H](C)CCCN2CC3CCC(C2)N3C)C(=O)N[C@@H](C(C)C)C(=O)N(C)[C@@H](CC(C)C)C(=O)N[C@@H](C)C(=O)N[C@H](C)C(=O)N(C)[C@@H](CC(C)C)C(=O)N(C)[C@@H](CC(C)C)C(=O)N(C)[C@@H](C(C)C)C(=O)N1C [Compound 2.19.3] (cyclo(A[dA][NMeL][NMeL][NMeV][MeBmt][Abu][dNMeA][X60]V[NMeL]))
[2]
  IC50: 2 µM
CypF
  CypF Kd: 0.3 nM
Cyclophilin B (CypB)
  CypB Kd: 0.4
Cyclophilin A (CypA)
  CypA Kd: 0.8
[3]; [4]
  IC50: 290 nM

## C/C=C/C[C@@H](C)[C@@H](O)[C@H]1C(=O)N[C@@H](CC)C(=O)N(C)[C@H](CO)C(=O)N(C)[C@@H]([C@H](C)COC)C(=O)N[C@@H](C(C)C)C(=O)N(C)[C@@H](CC(C)C)C(=O)N[C@@H](C)C(=O)N[C@H](C)C(=O)N(C)[C@@H](CC(C)C)C(=O)N(C)[C@@H](CC(C)C)C(=O)N(C)[C@@H](C(C)C)C(=O)N1C [Compound 3.2.3, 3-[D-ser]-4-[(2S,3S)-4-methoxy-3-methyl-2-(methylamino)butanoyl]-cyclosporin] (cyclo(A[dA][NMeL][NMeL][NMeV][MeBmt][Abu][dNMeS][NMeVal(4-OMe,3S)]V[NMeL]))
[2]
  IC50: 8.9 µM
CypF
  CypF Kd: 7 nM
Cyclophilin B (CypB)
  CypB Kd: 7
Cyclophilin A (CypA)
  CypA Kd: 15
[3]
  IC50: 330 nM
